Results taken from patent publication US10829452B2, “Histone methyltransferase inhibitors” (GLOBAL BLOOD THERAPEUTICS, INC., priority 2016, dated 2020).
Where a name gives a salt, the structure may show the parent alone.

Each molecule was assayed against T1, G9a (Homo sapiens, UniProt Q96KQ7) (assay: G9a AlphaLISA enzymatic activity assay). Details: 0.15 nM G9a, 15 uM S-adenosyl-methionine, 100 nM biotinylated histone 3 peptide (1-21), 1 hour at room temperature; read-out: G9a in (uM) (IC50, concentration that produced 50% inhibition).
T1 sequence (Q96KQ7 1-1210): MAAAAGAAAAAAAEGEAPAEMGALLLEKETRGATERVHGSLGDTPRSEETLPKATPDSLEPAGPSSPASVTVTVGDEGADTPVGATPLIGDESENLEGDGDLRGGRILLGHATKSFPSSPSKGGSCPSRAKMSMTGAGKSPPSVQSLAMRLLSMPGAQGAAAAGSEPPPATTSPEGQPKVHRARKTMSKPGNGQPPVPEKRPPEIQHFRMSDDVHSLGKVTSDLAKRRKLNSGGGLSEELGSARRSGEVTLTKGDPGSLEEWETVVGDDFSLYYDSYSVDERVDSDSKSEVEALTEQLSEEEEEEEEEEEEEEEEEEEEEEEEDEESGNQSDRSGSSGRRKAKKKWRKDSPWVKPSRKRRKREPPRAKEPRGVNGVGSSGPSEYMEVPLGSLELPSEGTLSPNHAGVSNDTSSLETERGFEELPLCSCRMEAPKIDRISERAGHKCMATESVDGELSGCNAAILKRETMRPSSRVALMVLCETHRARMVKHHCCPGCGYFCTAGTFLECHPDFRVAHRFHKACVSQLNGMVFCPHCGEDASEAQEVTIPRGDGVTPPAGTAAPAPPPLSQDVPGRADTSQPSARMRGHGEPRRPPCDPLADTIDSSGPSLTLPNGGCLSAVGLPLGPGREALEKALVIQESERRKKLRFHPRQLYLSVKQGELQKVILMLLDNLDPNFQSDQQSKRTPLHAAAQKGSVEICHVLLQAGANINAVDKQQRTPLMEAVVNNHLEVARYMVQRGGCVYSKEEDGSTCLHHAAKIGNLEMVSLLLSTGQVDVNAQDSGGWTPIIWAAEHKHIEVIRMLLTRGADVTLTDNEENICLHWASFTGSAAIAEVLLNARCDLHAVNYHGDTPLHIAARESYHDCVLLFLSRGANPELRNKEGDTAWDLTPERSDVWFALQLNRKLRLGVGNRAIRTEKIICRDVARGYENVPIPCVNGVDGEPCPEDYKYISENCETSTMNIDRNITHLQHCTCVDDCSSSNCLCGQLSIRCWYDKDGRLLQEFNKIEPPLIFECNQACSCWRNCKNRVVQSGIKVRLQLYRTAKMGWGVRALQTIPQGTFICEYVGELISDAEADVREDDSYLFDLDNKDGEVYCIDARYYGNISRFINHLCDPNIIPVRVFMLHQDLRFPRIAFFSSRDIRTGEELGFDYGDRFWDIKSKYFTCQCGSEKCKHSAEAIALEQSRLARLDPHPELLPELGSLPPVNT
Type: biochemical
How it was run: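 Human G9a (0.15 nM) methylated 100 nM biotinylated histone H3(1-21) peptide with 15 uM SAM in Tris-HCl pH9 buffer with NaCl, Tween-20 and DTT, 1 h at room temperature. H3K9me2 was detected by AlphaLISA acceptor/streptavidin donor beads (20 ug/mL each); IC50 from percent inhibition across compound dilutions.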

Row | SMILES | IC50
1 | COc1cc2c3c(c(NC4CCN(C(C)C)CC4)nc2cc1OCCCN1CCCC1)CCC3 [Example 43, N-{8-methoxy-7-[3-(pyrrolidin-1-yl)propoxy]-1H,2H,3H-cyclopenta[c]quinolin-4-yl}-1-(propan-2-yl)piperidin-4-amine formate] | 1.7 µM
2 | COc1cc2nc(NC3CC3)c3c(c2cc1OCCCN1CCCC1)COC3 [Example 47, N-cyclopropyl-7-methoxy-8-[3-(pyrrolidin-1-yl)propoxy]-1H,3H-furo[3,4-c]quinolin-4-amine] | 3.1 µM
3 | COc1cc2c3c(c(NC(C)C)nc2cc1OCCCN1CCCC1)CC(O)CC3 (centres unmarked) [Example 68, 2-methoxy-6-[(propan-2-yl)amino]-3-[3-(pyrrolidin-1-yl)propoxy]-7,8,9,10-tetrahydrophenanthridin-8-ol trifluoroacetate] | 0.11 µM
4 | COc1cc2c3c(c(NC(C)C)nc2cc1OCC1CCN(C)C1)CCC3 (centres unmarked) [Example 11, 8-methoxy-7-[(1-methylpyrrolidin-3-yl)methoxy]-N-(propan-2-yl)-1H,2H,3H-cyclopenta[c]quinolin-4-amine trifluoroacetate] | 0.27 µM
5 | COc1cc2c3c(c(NCC4CCC4)nc2cc1OCCCN1CCCC1)CC(C)(C)C3 [Example 96, N-(cyclobutylmethyl)-8-methoxy-2,2-dimethyl-7-(3-(pyrrolidin-1-yl)propoxy)-2,3-dihydro-1H-cyclopenta[c]quinolin-4-amine formate] | 0.1 µM
6 | COc1cc2c3c(c(NC(C)C)nc2c(F)c1OCCCN1CCCC1)CCC3 [Example 63, 6-fluoro-8-methoxy-N-(propan-2-yl)-7-[3-(pyrrolidin-1-yl)propoxy]-1H,2H,3H-cyclopenta[c]quinolin-4-amine formate] | 2.3 µM
7 | COc1cc2c3c(c(NC(C)C)nc2cc1OCCCN1CCOCC1)CCC3 [Example 112, 8-methoxy-7-[3-(morpholin-4-yl)propoxy]-N-(propan-2-yl)-1H,2H,3H-cyclopenta[c]quinolin-4-amine trifluoroacetate] | > 10 µM
8 | COc1cc2c3c(c(NC4CC4)nc2cc1OCCCN1CCCC1)CCCC3 [Example 19, N-cyclopropyl-2-methoxy-3-[3-(pyrrolidin-1-yl)propoxy]-7,8,9,10-tetrahydrophenanthridin-6-amine formate] | 0.057 µM
9 | COc1cc2c3c(c(NCCC#N)nc2cc1OCCCN1CCCC1)CCC3 [Example 119, 3-({8-methoxy-7-[3-(pyrrolidin-1-yl)propoxy]-1H,2H,3H-cyclopenta[c]quinolin-4-yl}amino)propanenitrile formate] | 0.11 µM
10 | COc1cc2c3c(c(N4CCCC4)nc2cc1OCCCN1CCCC1)CCC3 [Example 10, 1-{8-methoxy-7-[3-(pyrrolidin-1-yl)propoxy]-1H,2H,3H-cyclopenta[c]quinolin-4-yl}pyrrolidine formate] | 0.19 µM
11 | COc1cc2c3c(c(N[C@@H]4CCOC4)nc2cc1OCCCN1CCCC1)CCC3 [Example 17, 8-methoxy-N-[(3R)-oxolan-3-yl]-7-[3-(pyrrolidin-1-yl)propoxy]-1H,2H,3H-cyclopenta[c]quinolin-4-amine formate] | 0.21 µM
12 | COc1cc2c3c(c(N[C@H]4CCC[C@@H]4O)nc2cc1OCCCN1CCCC1)CCC3 [Example 124, (1S,25)-2-({8-methoxy-7-[3-(pyrrolidin-1-yl)propoxy]-1H,2H,3H-cyclopenta[c]quinolin-4-yl}amino)cyclopentan-1-ol formate] | 4.7 µM
13 | COc1cc2c3c(c(C4CCCC4)nc2cc1OCCCN1CCCC1)CCC3 [Example 109, 1-[3-({4-cyclopentyl-8-methoxy-1H,2H,3H-cyclopenta[c]quinolin-7-yl}oxy)propyl]pyrrolidine formate] | 0.5 µM
14 | COc1cc2c3c(c(NC(C)C)nc2cc1OCCCN(C)C)CCC3 [Example 92, 7-[3-(dimethylamino)propoxy]-8-methoxy-N-(propan-2-yl)-1H,2H,3H-cyclopenta[c]quinolin-4-amine formate] | 0.059 µM
15 | COc1cc2c3c(c(N)nc2cc1OCCCN1CCCC1)CC(C)(C)C3 [Example 118, 8-methoxy-2,2-dimethyl-7-[3-(pyrrolidin-1-yl)propoxy]-1H,2H,3H-cyclopenta[c]quinolin-4-amine formate] | 0.018 µM
16 | COc1cc2c3c(c(NCC4CCC4)nc2cc1OCCCN1CCCC1)CCC3 [Example 49, N-(cyclobutylmethyl)-8-methoxy-7-[3-(pyrrolidin-1-yl)propoxy]-1H,2H,3H-cyclopenta[c]quinolin-4-amine formate] | 0.046 µM
17 | COc1cc2c3c(c(O)nc2cc1OCCCN1CCCC1)CCCC3 [Example 38, 2-methoxy-3-[3-(pyrrolidin-1-yl)propoxy]-7,8,9,10-tetrahydrophenanthridin-6-ol trifluoroacetate] | 3 µM
18 | COc1cc2c3c(c(NC4CCCC4)nc2cc1OCCCN1CCCC1)CCC3 [Example 8, N-cyclopentyl-8-methoxy-7-[3-(pyrrolidin-1-yl)propoxy]-1H,2H,3H-cyclopenta[c]quinolin-4-amine trifluoroacetate] | 0.04 µM
19 | COc1cc2c3c(c(NCC(C)C)nc2cc1OCCCN1CCCC1)CC(C)(C)C3 [Example 95, N-isobutyl-8-methoxy-2,2-dimethyl-7-(3-(pyrrolidin-1-yl)propoxy)-2,3-dihydro-1H-cyclopenta[c]quinolin-4-amine formate] | 0.07 µM

The next molecules have a lower IC50 than those just listed; values first:

Row | IC50 | SMILES
20 | 0.015 µM | COc1cc2c3c(c(NC(C)C)nc2cc1OCCCN1CCCC1)CCC3 [Example 3, 8-methoxy-N-(propan-2-yl)-7-[3-(pyrrolidin-1-yl)propoxy]-1H,2H,3H-cyclopenta-[c]quinolin-4-amine trifluoroacetate]
21 | 0.013 µM | COc1cc2c3c(c(C4CC4)nc2cc1OCCCN1CCCC1)CCC(C)(C)N3 [Example 76, 1-[3-({5-cyclopropyl-9-methoxy-2,2-dimethyl-1H,2H,3H,4H-benzo[h]1,6-naphthyridin-8-yl}oxy)propyl]pyrrolidine formate]
22 | 0.013 µM | CCNc1nc2cc(OCCCN3CCCC3)c(OC)cc2c2c1CCC2 [Example 106, N-ethyl-8-methoxy-7-[3-(pyrrolidin-1-yl)propoxy]-1H,2H,3H-cyclopenta[c]quinolin-4-amine trifluoroacetate]
23 | 0.009 µM | COc1cc2c3c(c(C(C)C)nc2cc1OCCCN1CCCC1)CCCCN3 [Example 81, 1-(3-{[10-methoxy-6-(propan-2-yl)-1H,2H,3H,4H,5H-azepino[3,2-c]quinolin-9-yl]oxy}propyl)pyrrolidine trifluoroacetate]
24 | 0.009 µM | COc1cc2c3c(c(C4CC4)nc2cc1OCCCN1CCCC1)CCCCN3 [Example 80, 1-[3-({6-cyclopropyl-10-methoxy-1H,2H,3H,4H,5H-azepino[3,2-c]quinolin-9-yl}oxy)propyl]pyrrolidine trifluoroacetate]
25 | 0.009 µM | COc1cc2c3c(c(C4CC4)nc2cc1OCCCN1CCCC1)CC(C)(C)N3 [Example 36, 1-[3-({4-cyclopropyl-8-methoxy-2,2-dimethyl-1H,2H,3H-pyrrolo[3,2-c]quinolin-7-yl}oxy)propyl]pyrrolidine formate]
26 | 0.008 µM | COc1cc2c3c(c(NC(C)C)nc2cc1OCCCN1CCCC1)CCC(C)N3 (centres unmarked) [Example 30, 9-methoxy-2-methyl-N-(propan-2-yl)-8-[3-(pyrrolidin-1-yl)propoxy]-1H,2H,3H,4H-benzo[h]1,6-naphthyridin-5-amine formate]
27 | 0.006 µM | COc1cc2c3c(c(N)nc2cc1OCCCN1CCCC1)CCC3 [Example 116, 8-methoxy-7-[3-(pyrrolidin-1-yl)propoxy]-1H,2H,3H-cyclopenta[c]quinolin-4-amine formate]
28 | 0.005 µM | COc1cc2c3c(c(NC(C)C)nc2cc1OCCCN1CCCC1)CC(C)(C)N3 [Example 25, 8-methoxy-2,2-dimethyl-N-(propan-2-yl)-7-[3-(pyrrolidin-1-yl)propoxy]-1H,2H,3H-pyrrolo[3,2-c]quinolin-4-amine trifluoroacetate]
29 | 0.004 µM | CNc1nc2cc(OCCCN3CCCC3)c(OC)cc2c2c1CCCN2 [Example 26, 9-methoxy-N-methyl-8-[3-(pyrrolidin-1-yl)propoxy]-1H,2H,3H,4H-benzo[h]1,6-naphthyridin-5-amine formate]
